Source: article PMC8747370, “Characterization of Two BAHD Acetyltransferases Highly Expressed in the Flowers of Jasminum sambac (L.) Aiton” (Plants, 2021)

What was measured:
6xHis-JsBEAT2 = test system: T1, 6xHis-JsBEAT2; experiment: GC-MS of benzyl acetate formed, curve fit; type: biochemical, Jasminum sambac; conditions: 250 mM Tris-HCl pH 7.5, 25 mM MgCl2, 25 mM KCl, 10 mM β-mercaptoethanol, 30 °C, 1 h
T1 construct: full-length cDNA, N-terminal 6xHis tag (pQE30), E. coli M15, Ni-NTA purified
From the text: GC-MS of benzyl acetate formed, curve fit on 6xHis-JsBEAT2

GST-JsBEAT1 = test system: T2, GST-JsBEAT1; experiment: GC-MS of benzyl acetate formed, curve fit; type: biochemical, Jasminum sambac; conditions: 250 mM Tris-HCl pH 7.5, 25 mM MgCl2, 25 mM KCl, 10 mM β-mercaptoethanol, 30 °C, 1 h
T2 construct: tag kept
From the text: GC-MS of benzyl acetate formed, curve fit on GST-JsBEAT1

Km (6xHis-JsBEAT2; with benzyl alcohol (fixed concentration not restated)) [µM]	Km (GST-JsBEAT1; 300 μM benzyl alcohol (fixed)) [µM]	Km (6xHis-JsBEAT2; with acetyl-CoA (fixed concentration not restated)) [µM]	Km (GST-JsBEAT1; 300 μM acetyl-CoA (fixed)) [µM]	Structure (SMILES)
317 ± 31.7	546 ± 94.5			CC(=O)SCCNC(=O)CCNC(=O)[C@H](O)C(C)(C)COP(=O)(O)OP(=O)(O)OC[C@H]1O[C@@H](n2cnc3c(N)ncnc32)[C@H](O)[C@@H]1OP(=O)(O)O [acetyl-CoA]
		279 ± 26.5	447 ± 108	OCc1ccccc1 [benzyl alcohol]
